The results in this text go back to the supplement of paper PMC10307832.

Holding throughout (experiment): relative viability (nuclei count vs DMSO), 5 days (fraction); higher = more cells survive
Compound in experiment [1]: COCC[n+]1c2c(n(Cc3cnccn3)c1C)C(=O)c1ccccc1C2=O [YM155] + N=C(N)NC(=N)NCCc1ccccc1 [Phenformin] (partner 250 µM)
The gist of the method: (§1)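 Lung cancer cell lines were seeded in 1536-well plates and dosed by pin tool the next day, with either a single drug or a fixed anchor-drug dose combined with five library-drug doses (not always all listed) spaced in √10 steps. Five days later, one step fixed the cells and stained their nuclei (final 0.05% Triton X-100, 1% formaldehyde, 1 ug/ml Hoechst), and nuclei were counted on 4× images. Relative viability is the nuclei count in treated wells divided by the count in vehicle wells, and each value is the median of duplicate plates.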

Compound in experiment [2]: CC(C)(C)c1cc(NC(=O)Nc2ccc(-c3cn4c(n3)sc3cc(OCCN5CCOCC5)ccc34)cc2)no1 [Quizartinib] + Nc1nc2[nH]cc(CCc3ccc(C(=O)N[C@@H](CCC(=O)O)C(=O)O)cc3)c2c(=O)[nH]1 [Pemetrexed] (partner 0.2 µM)
The gist of the method:
as §1

Compound in experiment [3]: CC(C)(C)c1cc(NC(=O)Nc2ccc(-c3cn4c(n3)sc3cc(OCCN5CCOCC5)ccc34)cc2)no1 [Quizartinib] + CC1(C)CCC(c2ccc(Cl)cc2)=C(CN2CCN(c3ccc(C(=O)NS(=O)(=O)c4ccc(N[C@H](CCN5CCOCC5)CSc5ccccc5)c(S(=O)(=O)C(F)(F)F)c4)cc3)CC2)C1 [Navitoclax] (partner 0.5 µM)
An outline of the steps:
as §1

Compound in experiment [4]: CC(C)(C)c1cc(NC(=O)Nc2ccc(-c3cn4c(n3)sc3cc(OCCN5CCOCC5)ccc34)cc2)no1 [Quizartinib] + CC(C)C[C@H](NC(=O)[C@H](Cc1ccccc1)NC(=O)c1cnccn1)B(O)O [Bortezomib] (partner 0.002 µM)
The gist of the method:
as §1

With NCI-H2009, the relative viability was 0.464 in experiment [1] (first compound 0.002 µM); 0.489 in experiment [1] (first compound 0.006325 µM); 0.46 in experiment [1] (first compound 0.02 µM); 0.326 in experiment [1] (first compound 0.06325 µM); 0.946 in experiment [2] (first compound 0.001 µM); 0.932 in experiment [2] (first compound 0.003162 µM). The relative viability in experiment [2] (first compound 0.01 µM) was 1.05; in experiment [2] (first compound 0.03162 µM), 1.02; in experiment [2] (first compound 0.1 µM), 1.07; in experiment [3] (first compound 0.001 µM), 1.13; in experiment [3] (first compound 0.003162 µM), 1.16; in experiment [3] (first compound 0.01 µM), 1.22. The relative viability came out at 1.03 in experiment [3] (first compound 0.03162 µM); 1.23 in experiment [3] (first compound 0.1 µM); 0.423 in experiment [4] (first compound 0.001 µM); 0.879 in experiment [4] (first compound 0.003162 µM); 0.948 in experiment [4] (first compound 0.01 µM); 1.02 in experiment [4] (first compound 0.03162 µM). In addition, the relative viability in experiment [4] (first compound 0.1 µM) came out at 0.926.
Take NCI-H2023: the relative viability in experiment [1] (first compound 0.002 µM) was found to be 0.361; in experiment [1] (first compound 0.006325 µM), 0.403; in experiment [1] (first compound 0.02 µM) it was 0.411; in experiment [1] (first compound 0.06325 µM) it was 0.422; in experiment [2] (first compound 0.001 µM), 0.209; in experiment [2] (first compound 0.003162 µM) it was 0.215. Besides, the relative viability in experiment [2] (first compound 0.01 µM) was determined as 0.295; in experiment [2] (first compound 0.1 µM), 0.244; in experiment [3] (first compound 0.001 µM), 0.981; in experiment [3] (first compound 0.003162 µM), 0.937; in experiment [3] (first compound 0.01 µM), 1.04; in experiment [3] (first compound 0.03162 µM), 0.744. For the same cell line, the relative viability in experiment [3] (first compound 0.1 µM) came to 1.04; in experiment [4] (first compound 0.001 µM) it was 0.777; in experiment [4] (first compound 0.003162 µM), 0.947; in experiment [4] (first compound 0.01 µM), 0.942; in experiment [4] (first compound 0.03162 µM), 0.751; in experiment [4] (first compound 0.1 µM), 0.926.
As to NCI-H2085, the relative viability stood at 0.782 in experiment [1] (first compound 0.002 µM); 0.835 in experiment [1] (first compound 0.006325 µM); 0.847 in experiment [1] (first compound 0.02 µM); 0.725 in experiment [1] (first compound 0.06325 µM); 0.82 in experiment [2] (first compound 0.001 µM); 0.879 in experiment [2] (first compound 0.003162 µM). For the same cell line, the relative viability in experiment [2] (first compound 0.01 µM) turned out to be 0.97; in experiment [2] (first compound 0.03162 µM) it was 0.836; in experiment [2] (first compound 0.1 µM) it was 0.833; in experiment [3] (first compound 0.001 µM), 1.03; in experiment [3] (first compound 0.003162 µM), 1.09; in experiment [3] (first compound 0.01 µM), 1.12. Also, the relative viability turned out to be 1.15 in experiment [3] (first compound 0.03162 µM); 1 in experiment [3] (first compound 0.1 µM); 0.981 in experiment [4] (first compound 0.001 µM); 0.994 in experiment [4] (first compound 0.003162 µM); 1.1 in experiment [4] (first compound 0.01 µM); 0.952 in experiment [4] (first compound 0.03162 µM). Moreover, in experiment [4] (first compound 0.1 µM), the relative viability was determined as 0.982.
Regarding NCI-H2087, the relative viability was determined as 0.476 in experiment [1] (first compound 0.002 µM); 0.448 in experiment [1] (first compound 0.006325 µM); 0.498 in experiment [1] (first compound 0.02 µM); 0.495 in experiment [1] (first compound 0.06325 µM); 0.66 in experiment [2] (first compound 0.001 µM); 0.536 in experiment [2] (first compound 0.003162 µM). The relative viability in experiment [2] (first compound 0.01 µM) stood at 0.71; in experiment [2] (first compound 0.03162 µM), 0.661; in experiment [2] (first compound 0.1 µM), 0.651; in experiment [3] (first compound 0.001 µM), 0.971; in experiment [3] (first compound 0.003162 µM), 0.953; in experiment [3] (first compound 0.01 µM) it was 1.06. Moreover, the relative viability in experiment [3] (first compound 0.03162 µM) amounted to 1.02; in experiment [3] (first compound 0.1 µM) it was 0.962; in experiment [4] (first compound 0.001 µM), 0.833; in experiment [4] (first compound 0.003162 µM), 0.927; in experiment [4] (first compound 0.01 µM), 0.88; in experiment [4] (first compound 0.03162 µM), 0.939. Also, the relative viability in experiment [4] (first compound 0.1 µM) came to 0.914.
Consider NCI-H2126, for which the relative viability in experiment [1] (first compound 0.002 µM) worked out at 0.508; in experiment [1] (first compound 0.006325 µM), 0.597; in experiment [1] (first compound 0.02 µM), 0.555; in experiment [1] (first compound 0.06325 µM) it was 0.522; in experiment [2] (first compound 0.001 µM), 0.682; in experiment [2] (first compound 0.003162 µM), 0.658. In addition, the relative viability in experiment [2] (first compound 0.01 µM) came to 0.765; in experiment [2] (first compound 0.03162 µM), 0.663; in experiment [2] (first compound 0.1 µM), 0.689; in experiment [3] (first compound 0.001 µM), 0.813; in experiment [3] (first compound 0.003162 µM), 0.823; in experiment [3] (first compound 0.01 µM) it was 0.882. Moreover, the relative viability in experiment [3] (first compound 0.03162 µM) was found to be 0.872; in experiment [3] (first compound 0.1 µM) it was 0.828; in experiment [4] (first compound 0.001 µM), 0.708; in experiment [4] (first compound 0.003162 µM) it was 1.06; in experiment [4] (first compound 0.01 µM) it was 1.12; in experiment [4] (first compound 0.03162 µM), 1.14. The relative viability in experiment [4] (first compound 0.1 µM) worked out at 1.15.
